Type in all cases: biochemical
Test [1] addresses T1, GST-TIE2 (intracellular domains of human TIE2) (Homo sapiens, UniProt Q02763).
T1 construct: made in house
The test is described as follows: TIE-2 Enzyme Assay (TIE2-E2), LANCE method. To be noted: for IC50: read-out: TIE2 PIC50 TIE2-E2 assay. The source says:
TIE-2 Enzyme Assay (TIE2-E2
The TIE-2 enzyme assay uses the LANCE method (Wallac) and GST-TIE2, baculovirus-expressed recombinant constructs of the intracellular domains of human TIE2 (amino acids 762–1104, GenBank Accession # L06139) tagged by GST). The method measures the ability of the purified enzymes to catalyse the transfer of the γ-phosphate from ATP onto tyrosine residues in a biotinylated synthetic peptide, D1–15 (biotin-C6-LEARLVAYEGWVAGKKKamide). This peptide phosphorylation is detected using the following procedure: for enzyme preactivation, GST-TIE2 is incubated for 2 hours at room temperature with 80 μM ATP, 10 mM MgCl2, 0.1 mg/ml BSA, 0.01% Tween 20 and 1 mM DTT in 100 mM HEPES buffer (pH7.4). 5 nM preactivated GST-TIE2 is incubated for 2 hours at room temperature in 96 well plates with 1 uM D1–15 peptide, 80 uM ATP, 10 mM MgCl2, 0.1 mg/ml BSA, 0.01% Tween 20 and titrated test compound (diluted from a 10 mM stock in DMSO, final DMSO concentration is 2.4%) in 100 mM HEPES (pH7.4). The reaction is stopped by the addition of EDTA (final concentration 45 mM). Streptavidin linked-APC (allophycocyanin, PerkinElmer) and europium-labeled anti-phosphotyrosine antibody (PerkinElmer) are then added at the final concentration of 8 nM and 1 nM, respectively. The APC signal is measured using an Wallac Multilabel 1420 counter. (Wallac Berthold Japan). The percent inhibition of activity is calculated relative to blank control wells. The concentration of test compound that inhibits 50% of activity (IC50) is interpolated using nonlinear regression (Levernberg-Marquardt) and the equation, y=Vmax (1−x/(K+x))+Y2, where “K” is equal to the IC50. The IC50 values are converted to pIC50 values, i.e., −log IC50 in Molar concentration.
On the technique in general: In TR-FRET formats the signal depends on donor and acceptor labels being close together.

For test [2], the target named is T2, catalytic domain of human VEGFR3 (Homo sapiens, UniProt P35916, H890Q).
T2 construct: made in house; host or cells: Sf9 insect cells (baculovirus, pFastBac1)
T2 sequence (P35916 with tags, fused parts or gaps isoform P35916-1 H890Q): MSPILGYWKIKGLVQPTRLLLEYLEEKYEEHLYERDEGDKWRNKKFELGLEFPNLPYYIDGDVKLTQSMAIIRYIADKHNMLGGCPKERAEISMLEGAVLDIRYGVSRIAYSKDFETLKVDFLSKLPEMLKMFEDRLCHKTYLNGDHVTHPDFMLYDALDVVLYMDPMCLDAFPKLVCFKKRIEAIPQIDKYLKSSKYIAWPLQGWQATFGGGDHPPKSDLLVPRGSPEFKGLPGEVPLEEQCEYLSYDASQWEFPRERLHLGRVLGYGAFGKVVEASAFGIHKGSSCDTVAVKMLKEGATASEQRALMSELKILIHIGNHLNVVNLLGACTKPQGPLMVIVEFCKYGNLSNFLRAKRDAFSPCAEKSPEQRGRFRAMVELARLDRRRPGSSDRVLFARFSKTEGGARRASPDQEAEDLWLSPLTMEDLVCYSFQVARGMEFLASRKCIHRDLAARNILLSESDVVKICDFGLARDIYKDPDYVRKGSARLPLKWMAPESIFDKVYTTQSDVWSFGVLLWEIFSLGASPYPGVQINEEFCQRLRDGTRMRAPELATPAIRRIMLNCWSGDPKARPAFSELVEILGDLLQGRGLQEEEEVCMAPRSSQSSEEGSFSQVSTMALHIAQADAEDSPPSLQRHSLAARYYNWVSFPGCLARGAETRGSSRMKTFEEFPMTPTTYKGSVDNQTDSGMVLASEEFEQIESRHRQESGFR
The test is described as follows: VEGFR-3 Homogenous Time-Resolved Fluorescence Assay (VEGFR-3-HTRF). To be noted: read-out: VEGFR3 PIC50 VEGFR-3-HTRF assay. The source says: VEGFR—3-Homogenous Time-Resolved Fluorescence Assay (VEGFR-3-HTRF)
This assay assesses Vascular Endothelial Growth Factor 3 (VEGFR3) tyrosine kinase inhibitory activity in substrate phosphorylation assays. The assay examines the ability of small molecule organic compounds to inhibit the tyrosine phosphorylation of a peptide substrate.
The substrate phosphorylation assays use the VEGFR3 catalytic domain, which is expressed in Sf. 9 insect cells as an amino-terminal GST-tagged fusion protein. The catalytic domain of human VEGFR3 (AA residues #819–1298 based upon GenBank Accession #XM003852) is cloned by PCR from human Placenta Marathon Ready cDNA (Clontech). The PCR product is subcloned into pFastBac1 vector containing an N-terminal GST tag. The resulting pFB/GST/VEGFR3icd vector is used to generate a recombinant baculovirus for protein expression. The VEGFR3 catalytic domain translated sequence is:
Autophosphorylation allows enzymes to be fully activated prior to addition to peptide substrates. The assays are performed using enzyme that has been activated by autophosphorylation via preincubation in buffer with ATP and magnesium. Activated enzyme is then diluted and added to titrated compound and the substrate mix.
200 nM VEGFR3 enzyme is activated for 45 minutes at room temperature by incubating the enzyme in buffer containing 100 mM HEPES (pH7.2), 75 μM ATP, 0.3 mM DTT, 0.1 mg/mL BSA, and 10 mM MgCl2. After activation, VEGFR3 is diluted 100-fold into 2× dilution buffer: 200 mM HEPES (pH 7.5), 0.2 mg/mL BSA, 0.6 mM DTT. 20 μL of the diluted enzyme mix is added to 20 μL of 2× substrate mix (150 μM ATP, 20 mM MgCl2, 0.72 μM biotinylated peptide) in the assay plates. Final assay conditions are: 100 mM HEPES (pH 7.2), 75 μM ATP, 10 mM MgCl2, 0.1 mg/mL BSA, 0.3 mM DTT, 0.36 μM biotinylated peptide, and 1 nM VEGFR3 enzyme. Assay plates are incubated for 1.5 hours at room temperature before the addition of 30 μL 100 mM EDTA to the wells to stop the enzymatic reaction. 40 μL/well of HTRF mix are then added to the assay plates for the detection of phosphorylated substrate. Final assay concentrations are: 100 mM HEPES (pH7.2), 0.1 mg/mL BSA, 15 nM streptavidin-labeled allophycocyanin (PerkinElmer), and 1 nM europium-labeled anti-phosphotyrosine antibody (PerkinElmer). Assay plates are left unsealed and are counted in a Wallac Multilabel Counter 1420 (PerkinElmer).
The data for dose responses are plotted as % Control calculated with the data reduction formula 100*(U1–C2)/(C1–C2) versus concentration of compound where U is the unknown value, C1 is the average control value obtained for DMSO , and C2 is the average control value obtained for 0.1M EDTA. Data are fitted to the curve described by: y=((Vmax*x)/(K+x)) where Vmax is the upper asymptote and K is the IC50.

The target in the next test is T3, GST-VEGFR2 (Homo sapiens, UniProt P35968).
T3 construct: GST-VEGFR2, baculovirus expressed recombinant constructs of the intracellular domains; made in house
T3 sequence (P35968 786-1356 limits assumed): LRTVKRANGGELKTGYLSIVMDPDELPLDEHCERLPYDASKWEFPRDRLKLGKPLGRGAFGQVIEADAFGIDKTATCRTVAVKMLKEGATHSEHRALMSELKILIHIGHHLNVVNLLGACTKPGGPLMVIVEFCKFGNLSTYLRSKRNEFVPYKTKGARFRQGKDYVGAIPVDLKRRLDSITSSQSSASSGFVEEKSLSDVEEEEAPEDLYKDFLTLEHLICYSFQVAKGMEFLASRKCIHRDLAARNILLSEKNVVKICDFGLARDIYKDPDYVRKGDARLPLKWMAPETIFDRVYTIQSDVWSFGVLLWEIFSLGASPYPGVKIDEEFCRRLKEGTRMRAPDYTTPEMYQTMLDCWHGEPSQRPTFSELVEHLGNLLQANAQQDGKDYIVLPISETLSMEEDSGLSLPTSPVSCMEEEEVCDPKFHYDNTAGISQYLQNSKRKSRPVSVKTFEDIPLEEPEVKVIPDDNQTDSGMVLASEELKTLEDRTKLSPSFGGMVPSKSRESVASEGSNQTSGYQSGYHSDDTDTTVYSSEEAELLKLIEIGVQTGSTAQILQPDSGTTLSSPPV
Kind of test: VEGF-R2 Enzyme Assay (VEGF-E2), LANCE method.

The structures appear in SMILES notation.

T1 sequence (Q02763 762-1104): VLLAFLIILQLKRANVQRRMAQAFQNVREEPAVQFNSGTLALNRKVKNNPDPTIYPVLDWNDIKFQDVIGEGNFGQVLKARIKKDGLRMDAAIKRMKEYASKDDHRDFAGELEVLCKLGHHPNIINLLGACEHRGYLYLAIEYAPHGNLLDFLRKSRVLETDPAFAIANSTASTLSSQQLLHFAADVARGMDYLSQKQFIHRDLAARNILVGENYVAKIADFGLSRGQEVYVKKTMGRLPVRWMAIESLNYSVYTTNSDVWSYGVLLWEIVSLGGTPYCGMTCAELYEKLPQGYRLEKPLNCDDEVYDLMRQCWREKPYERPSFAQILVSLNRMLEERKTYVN

With `CN1CCN(CCCNc2ncc3c(-c4ccc(NS(=O)(=O)c5cccc(Cl)c5Cl)cc4)nn(C)c3n2)CC1` [Example 111, 2,3-Dichloro-N-(4-{1-methyl-6-[3-(4-methyl-piperazin-1-yl)-propylamino]-1H-pyrazolo[3,4-d]pyrimidin-3-yl]-phenyl}-benzenesulfonamide], the IC50 was 1000 to 10000 nM in test [1] and above 10000 nM in test [2].

On to `Cn1nc(-c2ccc(NS(=O)(=O)c3cccc(Cl)c3Cl)cc2)c2cnc(NCCCCNC(=N)N)nc21` [Example 121, 2,3-Dichloro-N-{4-[1-methyl-6-(4-guanidino-butylamino)-1H-pyrazolo[3,4-d]pyrimidin-3-yl]-phenyl}-benzenesulfonamide], for which the IC50 was 1000 to 10000 nM in test [1] and above 10000 nM in test [2].

As for `Cn1nc(-c2ccc(NC(=O)Nc3cc(C(F)(F)F)cc(C(F)(F)F)c3)c(F)c2)c2cnc(NCCN3CCOCC3)nc21` [Example 53, 1-(3,5-Bis-trifluoromethyl-phenyl)-3-{2-fluoro-[methyl-(2-morpholin-4-yl-ethylamino)-1H-pyrazolo[3,4-d]pyrimidin-3-yl]-phenyl}-urea], the “TIE2 PIC50 TIE2-E2 assay” value in test [1] was “+++ (+++ = PIC50 = 7.00 to less than 7.40)”. Also, on GST-VEGFR2, the “VEGFR2 PIC50 VEGFR-E2 assay” value is “+ (+ = PIC50 = 5.00 to less than 6.00)”.

`Cn1nc(-c2ccc(NC(=O)Nc3cc(C(F)(F)F)ccc3F)cc2)c2cnc(NC(CO)CO)nc21` [Example 83]: the IC50 was 100 to 1000 nM in test [1] and above 10000 nM on GST-VEGFR2 (read-out: VEGFR2 PIC50 VEGFR-E2 assay).

Turning to `Cn1cccc1CCNc1ncc2c(-c3ccc(NS(=O)(=O)c4cccc(Cl)c4Cl)cc3)nn(C)c2n1` [Example 117, 2,3-Dichloro-N-(4-{1-methyl-6-[2-(1-methyl-1H-pyrrol-2-yl)ethylamino]-1H-pyrazolo[3,4-d]pyrimidin-3-yl]-phenyl}-benzenesulfonamide], the IC50 in test [2] lay in the range of 1000 to 10000 nM.

As to `Cn1nc(-c2ccc(NC(=O)Nc3cc(C(F)(F)F)ccc3F)cc2)c2cnc(NCCc3cccnc3)nc21` [Example 141], the IC50 in test [1] is 100 to 1000 nM; in test [2], above 10000 nM.

With `Cn1nc(-c2ccc(NS(=O)(=O)c3cccc(Cl)c3Cl)cc2)c2cnc(NCCCN)nc21` [Example 119, 2,3-Dichloro-N-{4-[1-methyl-6-(3-amino-propylamino)-1H-pyrazolo[3,4-d]pyrimidin-3-yl]-phenyl}-benzenesulfonamide], the IC50 in test [1] was 1000 to 10000 nM; in test [2] it was above 10000 nM.

As for `CC(=O)NCCNc1ncc2c(-c3ccc(NS(=O)(=O)c4cccc(Cl)c4Cl)cc3)nn(C)c2n1` [Example 115, 2,3-Dichloro-N-{4-[1-methyl-6-(2-acetylamino-ethylamino)-1H-pyrazolo[3,4-d]pyrimidin-3-yl]-phenyl}-benzenesulfonamide], the IC50 was above 10000 nM in test [1] and 1000 to 10000 nM in test [2].

For `Cn1nc(-c2ccc(NC(=O)Nc3cc(C(F)(F)F)ccc3F)cc2)c2cnc(NCCc3ccncc3)nc21` [Example 140, 1-(2-Fluoro-5-trifluoromethyl-phenyl)-3-{4-[(1-methyl-6-(2-pyridin-4-yl-ethylamino)-1H-pyrazolo[3,4-d]pyrimidin-3-yl]-phenyl]} urea], the IC50 in test [1] fell in the range of 39.8 to 100 nM; in test [2], 100 to 1000 nM.

Turning to `CN1CCC(Nc2ncc3c(-c4ccc(NS(=O)(=O)c5cccc(Cl)c5Cl)cc4)nn(C)c3n2)CC1` [Example 68], the IC50 in test [1] fell in the range of 100 to 1000 nM.

In the case of `Cn1nc(-c2ccc(NS(=O)(=O)c3cccc(Cl)c3Cl)cc2)c2cnc(NCCCN3CCOCC3)nc21` [Example 103, 2,3-Dichloro-N-{4-[1-methyl-6-(3-morpholin-4-yl-propylamino)-1H-pyrazolo[3,4-d]pyrimidin-3-yl)-phenyl}-benzenesulfonamide], in test [1], the IC50 is above 10000 nM.

As to `Cn1nc(-c2ccc(NS(=O)(=O)c3cccc(Cl)c3Cl)cc2)c2cnc(NCCCCN3CCCC3)nc21` [Example 110, 2,3-Dichloro-N-{4-[1-methyl-6-(4-pyrrolidin 1-yl-butylamino)-1H-pyrazolo[3,4-d]pyrimidin-3-yl]-phenyl}-benzenesulfonamide], the IC50 in test [1] is above 10000 nM.

On to `CN1CCCC1CCNc1ncc2c(-c3ccc(NS(=O)(=O)c4cccc(Cl)c4Cl)cc3)nn(C)c2n1` (stereo not shown) [Example 108, 2,3-Dichloro-N-(4-{1-methyl-6-[2-(1-methyl-pyrrolidin-2-yl)-ethylamino]-1H-pyrazolo[3,4-d]pyrimidin-3-yl]-phenyl}-benzenesulfonamide], for which the IC50 in test [1] was above 10000 nM.

As to `Cn1nc(-c2ccc(NC(=O)Nc3cc(C(F)(F)F)ccc3F)c(F)c2)c2cnc(NCCCN3CCOCC3)nc21` [Example 127], the IC50 in test [1] is at most 39.8 nM.

On to `Cn1nc(-c2ccc(NC(=O)Nc3cc(C(F)(F)F)ccc3F)cc2)c2cnc(NCCCN3CCCC3)nc21` [Example 86], for which, in test [1], the IC50 was at most 39.8 nM.

In the case of `Cn1nc(-c2ccc(NC(=O)Nc3cc(C(F)(F)F)ccc3F)cc2)c2cnc(NCCCCNC(=N)N)nc21` [Example 99, 1-(2-Fluoro-5-trifluoromethyl-phenyl)-3-{4-[1-methyl-6-(4-guanidino-butylamino)-1H-pyrazolo[3,4-d]pyrimidin-3-yl]-phenyl} urea], in test [1], the IC50 lay within 39.8 to 100 nM.

As for `Cn1nc(-c2ccc(NC(=O)Nc3cc(C(F)(F)F)ccc3F)cc2)c2cnc(NCCCN)nc21` [Example 94, 1-(2-Fluoro-5-trifluoromethyl-phenyl)-3-{4-[1-methyl-6-(3-amino-propylamino)-1H-pyrazolo[3,4-d]pyrimidin-3-yl]-phenyl} urea], in test [1], the IC50 is 39.8 to 100 nM.

As to `Cn1nc(-c2ccc(NC(=O)Nc3cccc(C(F)(F)F)c3)cc2)c2cnc(NCCN3CCOCC3)nc21` [Example 42, 1-{4-[1-Methyl-6-(2-morpholin-4-yl-ethylamino)-1H-pyrazolo[3,4-d]pyrimidin-3-yl]-phenyl}-3-(3-trifluoromethyl-phenyl)-urea], the IC50 in test [1] was at most 39.8 nM; in test [2] it was 1000 to 10000 nM.

For the molecule `Cn1nc(-c2ccc(NC(=O)Nc3cc(C(F)(F)F)ccc3F)cc2)c2cnc(Nc3cccc(Cl)c3)nc21` [Example 63], in test [1], the “TIE2 PIC50 TIE2-E2 assay” value is “++ (++ = PIC50 = 6.00 to less than 7.00)”.

On to `Cn1nc(-c2ccc(NS(=O)(=O)c3cccc(Cl)c3Cl)cc2)c2cnc(NCCCn3ccnc3)nc21` [Example 116, 2,3-Dichloro-N-{4-[1-methyl-6-(3-imidazol-1-yl-propylamino)-1H-pyrazolo[3,4-d]pyrimidin-3-yl]-phenyl}-benzenesulfonamide], for which the IC50 in test [1] and in test [2] was above 10000 nM in each case.

Consider `CC1CCCCN1CCCNc1ncc2c(-c3ccc(NC(=O)Nc4cc(C(F)(F)F)ccc4F)c(F)c3)nn(C)c2n1` (stereo not shown) [Example 128], for which the IC50 in test [1] is at most 39.8 nM.

Values taken from patent publication US7217710B2, “Substituted pyrazolopyrimidines” (SmithKline Beecham Corporation, priority 2001, dated 2007).
